Columns and labels:
[1] = test system: Tyrosine-protein kinase ABL1 (Homo sapiens), P00519 [F317L]; conditions: Compound concentration 1000.0 nM
[2] = target: Atypical kinase COQ8A, mitochondrial (Homo sapiens) (UniProt Q8NI60); conditions: Compound concentration 1000.0 nM
[3] = target: Serine/threonine-protein kinase Chk2 (Homo sapiens) (UniProt O96017); conditions: Compound concentration 1000.0 nM
[4] = target: Macrophage colony-stimulating factor 1 receptor (Homo sapiens) (UniProt P07333); conditions: Compound concentration 1000.0 nM
[5] = target: Casein kinase II subunit alpha' (Homo sapiens) (UniProt P19784); conditions: Compound concentration 1000.0 nM
[6] = target: Discoidin domain-containing receptor 2 (Homo sapiens) (UniProt Q16832); conditions: Compound concentration 1000.0 nM
[7] = target: Dual specificity tyrosine-phosphorylation-regulated kinase 1B (Homo sapiens) (UniProt Q9Y463); conditions: Compound concentration 1000.0 nM
[8] = test system: Epidermal growth factor receptor (Homo sapiens), P00533 [UNDEFINED MUTATION]; conditions: Compound concentration 1000.0 nM
[9] = target: Mitogen-activated protein kinase 7 (Homo sapiens) (UniProt Q13164); conditions: Compound concentration 1000.0 nM
[10] = target: Receptor-type tyrosine-protein kinase FLT3 (Homo sapiens) (UniProt P36888); conditions: Compound concentration 1000.0 nM
[11] = test system: Receptor-type tyrosine-protein kinase FLT3 (Homo sapiens), P36888 [N841I]; conditions: Compound concentration 1000.0 nM
[12] = target: Inhibitor of nuclear factor kappa-B kinase subunit beta (Homo sapiens) (UniProt O14920); conditions: Compound concentration 1000.0 nM
[13] = target: Inhibitor of nuclear factor kappa-B kinase subunit epsilon (Homo sapiens) (UniProt Q14164); conditions: Compound concentration 1000.0 nM
[14] = target: Interleukin-1 receptor-associated kinase 1 (Homo sapiens) (UniProt P51617); conditions: Compound concentration 1000.0 nM
[15] = target: Interleukin-1 receptor-associated kinase 4 (Homo sapiens) (UniProt Q9NWZ3); conditions: Compound concentration 1000.0 nM
[16] = test system: Mast/stem cell growth factor receptor Kit (Homo sapiens), P10721 [A829P]; conditions: Compound concentration 1000.0 nM
[17] = target: Mast/stem cell growth factor receptor Kit (Homo sapiens) (UniProt P10721); conditions: Compound concentration 1000.0 nM
[18] = target: Serine/threonine-protein kinase STK11 (Homo sapiens) (UniProt Q15831); conditions: Compound concentration 1000.0 nM
[19] = target: Leucine-rich repeat serine/threonine-protein kinase 2 (Homo sapiens) (UniProt Q5S007); conditions: Compound concentration 1000.0 nM
[20] = target: Tyrosine-protein kinase Lyn (Homo sapiens) (UniProt P07948); conditions: Compound concentration 1000.0 nM
[21] = target: MAP/microtubule affinity-regulating kinase 3 (Homo sapiens) (UniProt P27448); conditions: Compound concentration 1000.0 nM
[22] = target: Serine/threonine-protein kinase 4 (Homo sapiens) (UniProt Q13043); conditions: Compound concentration 1000.0 nM
[23] = target: Serine/threonine-protein kinase 3 (Homo sapiens) (UniProt Q13188); conditions: Compound concentration 1000.0 nM
[24] = target: Serine/threonine-protein kinase Nek1 (Homo sapiens) (UniProt Q96PY6); conditions: Compound concentration 1000.0 nM
[25] = target: Serine/threonine-protein kinase Nek3 (Homo sapiens) (UniProt P51956); conditions: Compound concentration 1000.0 nM
[26] = target: Serine/threonine-protein kinase NLK (Homo sapiens) (UniProt Q9UBE8); conditions: Compound concentration 1000.0 nM
[27] = target: Phosphatidylinositol 3-kinase C2 domain-containing subunit gamma (Homo sapiens) (UniProt O75747); conditions: Compound concentration 1000.0 nM
[28] = test system: Phosphatidylinositol 4,5-bisphosphate 3-kinase catalytic subunit alpha isoform (Homo sapiens), P42336 [Q546K]; conditions: Compound concentration 1000.0 nM
[29] = target: Protein kinase C epsilon type (Homo sapiens) (UniProt Q02156); conditions: Compound concentration 1000.0 nM
[30] = target: Interferon-induced, double-stranded RNA-activated protein kinase (Homo sapiens) (UniProt P19525); conditions: Compound concentration 1000.0 nM
[31] = target: Receptor-interacting serine/threonine-protein kinase 4 (Homo sapiens) (UniProt P57078); conditions: Compound concentration 1000.0 nM
[32] = target: Dual serine/threonine and tyrosine protein kinase (Homo sapiens) (UniProt Q6XUX3); conditions: Compound concentration 1000.0 nM
[33] = target: TRAF2 and NCK-interacting protein kinase (Homo sapiens) (UniProt Q9UKE5); conditions: Compound concentration 1000.0 nM
[34] = target: BDNF/NT-3 growth factors receptor (Homo sapiens) (UniProt Q16620); conditions: Compound concentration 1000.0 nM
[35] = target: Tyrosine-protein kinase TXK (Homo sapiens) (UniProt P42681); conditions: Compound concentration 1000.0 nM
[36] = target: Tyrosine-protein kinase ZAP-70 (Homo sapiens) (UniProt P43403); conditions: Compound concentration 1000.0 nM
[37] = target: T1, 5-hydroxytryptamine receptor 2C (Homo sapiens) (UniProt P28335); conditions: Compound concentration 10.0 uM
T1 sequence (whole entry): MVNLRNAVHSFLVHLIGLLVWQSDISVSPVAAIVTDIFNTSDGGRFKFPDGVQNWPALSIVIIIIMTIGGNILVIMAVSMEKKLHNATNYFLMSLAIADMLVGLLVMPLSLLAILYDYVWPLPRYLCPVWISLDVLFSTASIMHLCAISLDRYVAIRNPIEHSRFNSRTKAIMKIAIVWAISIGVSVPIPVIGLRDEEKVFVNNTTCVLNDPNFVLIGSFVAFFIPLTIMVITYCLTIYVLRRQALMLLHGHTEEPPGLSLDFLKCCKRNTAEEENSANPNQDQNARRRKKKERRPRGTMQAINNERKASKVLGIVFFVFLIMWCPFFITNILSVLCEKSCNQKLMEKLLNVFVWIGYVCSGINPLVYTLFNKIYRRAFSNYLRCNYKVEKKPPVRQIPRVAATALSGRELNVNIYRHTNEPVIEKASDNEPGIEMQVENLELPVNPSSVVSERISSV

[38] = target: Mu-type opioid receptor (Homo sapiens) (UniProt P35372); conditions: Compound concentration 10.0 uM
Chain of Mu-type opioid receptor (Homo sapiens) (P35372 whole entry): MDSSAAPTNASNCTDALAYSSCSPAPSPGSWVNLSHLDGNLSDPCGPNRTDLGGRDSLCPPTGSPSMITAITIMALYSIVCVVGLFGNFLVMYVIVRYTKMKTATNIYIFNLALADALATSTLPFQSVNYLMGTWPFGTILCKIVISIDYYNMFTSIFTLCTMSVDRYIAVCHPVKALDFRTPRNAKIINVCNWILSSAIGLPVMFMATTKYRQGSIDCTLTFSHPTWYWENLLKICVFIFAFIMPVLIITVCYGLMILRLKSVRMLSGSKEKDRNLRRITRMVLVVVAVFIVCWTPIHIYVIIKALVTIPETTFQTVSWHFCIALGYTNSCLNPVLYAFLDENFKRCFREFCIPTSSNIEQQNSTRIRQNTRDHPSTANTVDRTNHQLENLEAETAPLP

Chain of Discoidin domain-containing receptor 2 (Homo sapiens) (Q16832 whole entry, the tested form may be a part): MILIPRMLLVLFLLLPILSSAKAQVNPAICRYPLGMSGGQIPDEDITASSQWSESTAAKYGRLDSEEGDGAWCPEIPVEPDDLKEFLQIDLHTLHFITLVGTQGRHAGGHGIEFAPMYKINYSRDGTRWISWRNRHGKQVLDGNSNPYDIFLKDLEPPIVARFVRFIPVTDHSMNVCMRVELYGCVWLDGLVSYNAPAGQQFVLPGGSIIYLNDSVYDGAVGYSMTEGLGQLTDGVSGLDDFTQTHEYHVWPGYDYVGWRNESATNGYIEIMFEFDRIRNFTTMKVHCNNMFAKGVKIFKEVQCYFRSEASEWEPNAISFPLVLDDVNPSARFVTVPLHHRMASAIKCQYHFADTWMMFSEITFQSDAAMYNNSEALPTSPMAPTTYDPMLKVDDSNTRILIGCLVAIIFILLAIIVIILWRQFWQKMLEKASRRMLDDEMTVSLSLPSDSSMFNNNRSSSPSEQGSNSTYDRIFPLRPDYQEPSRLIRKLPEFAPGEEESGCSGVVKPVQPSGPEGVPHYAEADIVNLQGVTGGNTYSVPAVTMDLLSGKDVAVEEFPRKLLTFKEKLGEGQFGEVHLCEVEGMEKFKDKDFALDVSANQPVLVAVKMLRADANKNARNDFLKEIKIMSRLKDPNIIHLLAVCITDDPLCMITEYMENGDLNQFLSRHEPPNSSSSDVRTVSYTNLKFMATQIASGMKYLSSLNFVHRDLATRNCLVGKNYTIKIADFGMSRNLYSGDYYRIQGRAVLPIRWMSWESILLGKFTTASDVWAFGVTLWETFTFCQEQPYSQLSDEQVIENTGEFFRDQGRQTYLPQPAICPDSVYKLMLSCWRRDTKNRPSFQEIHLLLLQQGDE
Chain of TRAF2 and NCK-interacting protein kinase (Homo sapiens) (Q9UKE5 whole entry, looked up): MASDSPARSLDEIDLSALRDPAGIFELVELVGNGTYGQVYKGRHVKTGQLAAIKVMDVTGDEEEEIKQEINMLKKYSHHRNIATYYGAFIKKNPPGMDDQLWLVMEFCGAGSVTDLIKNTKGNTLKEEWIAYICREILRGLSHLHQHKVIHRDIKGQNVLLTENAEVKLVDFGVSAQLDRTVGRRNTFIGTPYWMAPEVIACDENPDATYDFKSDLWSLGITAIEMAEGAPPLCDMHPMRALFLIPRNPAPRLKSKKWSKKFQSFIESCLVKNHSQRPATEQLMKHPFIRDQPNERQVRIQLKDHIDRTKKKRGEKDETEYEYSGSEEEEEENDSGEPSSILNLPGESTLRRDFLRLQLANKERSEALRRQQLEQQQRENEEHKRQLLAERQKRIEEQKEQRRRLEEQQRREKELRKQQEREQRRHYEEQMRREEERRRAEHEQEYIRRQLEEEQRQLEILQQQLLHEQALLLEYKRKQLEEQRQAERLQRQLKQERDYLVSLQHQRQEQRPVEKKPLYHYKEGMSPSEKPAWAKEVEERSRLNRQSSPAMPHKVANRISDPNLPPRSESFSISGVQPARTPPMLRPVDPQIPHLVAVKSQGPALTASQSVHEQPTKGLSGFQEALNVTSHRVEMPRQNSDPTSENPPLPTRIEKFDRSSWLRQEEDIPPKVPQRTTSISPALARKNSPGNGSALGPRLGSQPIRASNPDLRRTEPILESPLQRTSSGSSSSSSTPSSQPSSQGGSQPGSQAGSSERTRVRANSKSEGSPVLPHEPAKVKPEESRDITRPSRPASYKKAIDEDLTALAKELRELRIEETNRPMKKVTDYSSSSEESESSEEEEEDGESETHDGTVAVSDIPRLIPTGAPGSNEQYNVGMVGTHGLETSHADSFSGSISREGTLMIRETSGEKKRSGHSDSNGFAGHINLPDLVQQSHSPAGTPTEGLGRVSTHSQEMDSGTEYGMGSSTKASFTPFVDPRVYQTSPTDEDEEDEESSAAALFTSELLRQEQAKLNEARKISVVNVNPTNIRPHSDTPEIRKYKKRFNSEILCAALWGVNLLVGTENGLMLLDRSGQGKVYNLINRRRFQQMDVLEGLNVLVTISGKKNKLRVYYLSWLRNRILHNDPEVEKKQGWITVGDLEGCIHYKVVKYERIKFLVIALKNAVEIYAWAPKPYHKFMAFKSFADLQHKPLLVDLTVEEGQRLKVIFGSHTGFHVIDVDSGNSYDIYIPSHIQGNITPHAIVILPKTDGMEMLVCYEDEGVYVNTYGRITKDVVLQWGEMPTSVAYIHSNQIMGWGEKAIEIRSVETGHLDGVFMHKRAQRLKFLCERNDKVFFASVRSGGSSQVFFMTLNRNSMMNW
Chain of Serine/threonine-protein kinase NLK (Homo sapiens) (Q9UBE8 whole entry, the tested form may be a part): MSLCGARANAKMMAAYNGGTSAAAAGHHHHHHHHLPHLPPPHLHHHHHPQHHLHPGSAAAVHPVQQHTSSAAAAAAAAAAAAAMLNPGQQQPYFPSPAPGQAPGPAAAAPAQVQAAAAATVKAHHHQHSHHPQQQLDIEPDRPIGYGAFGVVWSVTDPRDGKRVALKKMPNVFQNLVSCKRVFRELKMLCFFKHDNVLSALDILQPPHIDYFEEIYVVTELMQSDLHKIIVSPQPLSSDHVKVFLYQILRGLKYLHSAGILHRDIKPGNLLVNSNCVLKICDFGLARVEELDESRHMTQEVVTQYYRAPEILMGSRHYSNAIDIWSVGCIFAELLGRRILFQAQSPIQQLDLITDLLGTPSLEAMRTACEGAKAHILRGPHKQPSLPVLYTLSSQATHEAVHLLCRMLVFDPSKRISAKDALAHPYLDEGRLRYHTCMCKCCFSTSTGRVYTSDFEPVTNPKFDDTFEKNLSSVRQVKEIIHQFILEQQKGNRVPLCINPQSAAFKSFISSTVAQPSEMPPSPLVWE
Chain of Dual serine/threonine and tyrosine protein kinase (Homo sapiens) (Q6XUX3 whole entry): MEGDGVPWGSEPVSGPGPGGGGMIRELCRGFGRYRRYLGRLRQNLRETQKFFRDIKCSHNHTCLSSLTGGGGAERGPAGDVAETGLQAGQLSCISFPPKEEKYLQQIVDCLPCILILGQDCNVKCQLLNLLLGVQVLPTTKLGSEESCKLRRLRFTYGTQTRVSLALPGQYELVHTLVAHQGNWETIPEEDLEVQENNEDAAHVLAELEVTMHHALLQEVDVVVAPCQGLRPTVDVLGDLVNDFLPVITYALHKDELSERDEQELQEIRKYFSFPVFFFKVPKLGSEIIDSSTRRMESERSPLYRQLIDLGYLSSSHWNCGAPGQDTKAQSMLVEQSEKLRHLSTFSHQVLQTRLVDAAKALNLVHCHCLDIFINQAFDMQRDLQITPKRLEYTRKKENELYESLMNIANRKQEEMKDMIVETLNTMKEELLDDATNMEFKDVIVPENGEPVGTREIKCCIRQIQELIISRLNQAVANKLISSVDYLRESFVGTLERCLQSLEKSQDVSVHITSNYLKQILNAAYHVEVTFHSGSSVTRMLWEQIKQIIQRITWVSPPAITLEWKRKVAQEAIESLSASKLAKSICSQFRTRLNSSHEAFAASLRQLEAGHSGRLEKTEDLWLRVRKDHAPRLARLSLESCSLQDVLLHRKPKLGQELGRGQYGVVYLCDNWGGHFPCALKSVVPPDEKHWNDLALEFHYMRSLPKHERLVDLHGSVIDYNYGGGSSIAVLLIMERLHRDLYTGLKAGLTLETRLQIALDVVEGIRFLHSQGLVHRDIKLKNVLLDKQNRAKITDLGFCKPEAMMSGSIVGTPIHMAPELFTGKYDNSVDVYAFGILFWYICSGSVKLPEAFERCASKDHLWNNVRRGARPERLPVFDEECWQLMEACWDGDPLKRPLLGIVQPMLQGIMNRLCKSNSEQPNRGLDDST
Chain of Inhibitor of nuclear factor kappa-B kinase subunit beta (Homo sapiens) (O14920 whole entry): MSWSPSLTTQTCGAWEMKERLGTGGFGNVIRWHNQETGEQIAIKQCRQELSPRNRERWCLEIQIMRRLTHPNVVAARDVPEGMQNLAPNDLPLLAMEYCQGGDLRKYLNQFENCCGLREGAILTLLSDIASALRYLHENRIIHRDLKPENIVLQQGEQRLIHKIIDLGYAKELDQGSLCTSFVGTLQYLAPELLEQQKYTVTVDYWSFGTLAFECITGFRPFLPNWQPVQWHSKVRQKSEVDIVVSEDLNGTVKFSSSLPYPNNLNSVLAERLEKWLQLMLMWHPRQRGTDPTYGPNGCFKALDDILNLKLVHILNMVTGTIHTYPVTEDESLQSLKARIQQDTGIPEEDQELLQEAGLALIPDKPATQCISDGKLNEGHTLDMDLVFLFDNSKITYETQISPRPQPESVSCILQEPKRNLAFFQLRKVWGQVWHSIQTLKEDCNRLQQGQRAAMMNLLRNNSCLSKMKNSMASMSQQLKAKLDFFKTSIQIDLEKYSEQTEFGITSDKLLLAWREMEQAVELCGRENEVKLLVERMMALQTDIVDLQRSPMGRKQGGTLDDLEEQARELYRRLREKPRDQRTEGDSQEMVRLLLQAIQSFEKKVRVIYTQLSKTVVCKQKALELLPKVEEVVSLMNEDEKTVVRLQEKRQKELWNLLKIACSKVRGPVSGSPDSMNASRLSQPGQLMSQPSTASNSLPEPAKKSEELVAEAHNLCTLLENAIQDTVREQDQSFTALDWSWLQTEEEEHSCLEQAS

Structure (SMILES)	residual activity [1] [%]	residual activity [2] [%]	residual activity [3] [%]	residual activity [4] [%]	residual activity [5] [%]	residual activity [6] [%]	residual activity [7] [%]	residual activity [8] [%]	residual activity [9] [%]	residual activity [10] [%]	residual activity [11] [%]	residual activity [12] [%]	residual activity [13] [%]	residual activity [14] [%]	residual activity [15] [%]	residual activity [16] [%]	residual activity [17] [%]	residual activity [18] [%]	residual activity [19] [%]	residual activity [20] [%]	further results
O=C(Nc1cccnn1)N1CC(C/C=C/c2cncc(Oc3ccc(C(F)(F)F)cn3)n2)C1	67	96	100	100	100	80	100	100	100	100	62	94	77	66	100	59	78	64	90	97	residual activity [21]: 100%; residual activity [22]: 100%; residual activity [23]: 80%; residual activity [24]: 100%; residual activity [25]: 100%; residual activity [26]: 100%; residual activity [27]: 100%; residual activity [28]: 92%; residual activity [29]: 100%; residual activity [30]: 100%; residual activity [31]: 74%; residual activity [32]: 65%; residual activity [33]: 92%; residual activity [34]: 77%; residual activity [35]: 100%; residual activity [36]: 90%; inhibition [37]: 1.89%; inhibition [38]: 1.18%
O=C(Nc1cccnn1)N1CCC(=Cc2cccc(Oc3ccc(C(F)(F)F)cn3)c2)CC1	94	78	94	95	100	100	100	69	100	100	69	83	100	100	97	96	100	100	99	100	residual activity [21]: 89%; residual activity [22]: 77%; residual activity [23]: 100%; residual activity [24]: 98%; residual activity [25]: 100%; residual activity [26]: 100%; residual activity [27]: 95%; residual activity [28]: 45%; residual activity [29]: 82%; residual activity [30]: 100%; residual activity [31]: 100%; residual activity [32]: 69%; residual activity [33]: 100%; residual activity [34]: 100%; residual activity [35]: 100%; residual activity [36]: 100%; inhibition [37]: 64.6%; inhibition [38]: 17.5%

Reference: ChEMBL document CHEMBL4507297, “Data for DCP probe PF-04457845” (2021)
